Assay results as given in PMC5290327, “SC83288 is a clinical development candidate for the treatment of severe malaria” (Nature Communications, 2017).

Experiments:
Experiment in all cases: KINOMEscan
Assay type in all cases: binding
Conditions in all cases: read-out: Remaining enzyme activity
PAK1 = molecular target: T1, PAK1 (Homo sapiens, UniProt Q13153)
T1 construct: purchased Ambit (DiscoverX) KINOMEscan; Cerep
Description: (§1) The KINOMEscan was carried out by Ambit (San Diego, USA) according to a previously established protocol. The experiment was based on a competition binding assay that quantitatively measures the ability of a compound to compete with an immobilized, active-site directed ligand. The assay is performed by combining three components: DNA-tagged kinase; immobilized ligand; and a test compound. The ability of the test compound to compete with the immobilized ligand is measured via quantitative PCR of the DNA tag.
(§2) For most assays, kinase-tagged T7 phage strains were grown in parallel in 24-well blocks in an Escherichia coli host derived from the BL21 strain. E. coli were grown to log-phase and infected with T7 phage from a frozen stock and incubated with shaking at 32 °C until lysis (90–150 min). The lysates were centrifuged (6,000g) and filtered (0.2 μm) to remove cell debris. The remaining kinases were produced in HEK-293 cells (Sigma Aldrich, catalogue number: 85120602) and subsequently tagged with DNA for quantitative PCR detection. […] The liganded beads were blocked with excess biotin and washed with blocking buffer (SeaBlock (Pierce), 1% bovine serum albumin, 0.05% Tween 20 and 1 mM dithiothreitol) to remove unbound ligand and to reduce non-specific phage binding. […] SC81458 was prepared as 40x stock in 100% DMSO and directly diluted into the assay to a final concentration of 10 μM. All reactions were performed in polypropylene 384-well plates in a final volume of 0.04 ml. […] The kinase concentration in the eluates was measured by quantitative PCR.

FGFR3 = molecular target: T2, FGFR3 (Homo sapiens, UniProt P22607)
T2 construct: purchased Ambit (DiscoverX) KINOMEscan; Cerep
T2 sequence (P22607 23-806): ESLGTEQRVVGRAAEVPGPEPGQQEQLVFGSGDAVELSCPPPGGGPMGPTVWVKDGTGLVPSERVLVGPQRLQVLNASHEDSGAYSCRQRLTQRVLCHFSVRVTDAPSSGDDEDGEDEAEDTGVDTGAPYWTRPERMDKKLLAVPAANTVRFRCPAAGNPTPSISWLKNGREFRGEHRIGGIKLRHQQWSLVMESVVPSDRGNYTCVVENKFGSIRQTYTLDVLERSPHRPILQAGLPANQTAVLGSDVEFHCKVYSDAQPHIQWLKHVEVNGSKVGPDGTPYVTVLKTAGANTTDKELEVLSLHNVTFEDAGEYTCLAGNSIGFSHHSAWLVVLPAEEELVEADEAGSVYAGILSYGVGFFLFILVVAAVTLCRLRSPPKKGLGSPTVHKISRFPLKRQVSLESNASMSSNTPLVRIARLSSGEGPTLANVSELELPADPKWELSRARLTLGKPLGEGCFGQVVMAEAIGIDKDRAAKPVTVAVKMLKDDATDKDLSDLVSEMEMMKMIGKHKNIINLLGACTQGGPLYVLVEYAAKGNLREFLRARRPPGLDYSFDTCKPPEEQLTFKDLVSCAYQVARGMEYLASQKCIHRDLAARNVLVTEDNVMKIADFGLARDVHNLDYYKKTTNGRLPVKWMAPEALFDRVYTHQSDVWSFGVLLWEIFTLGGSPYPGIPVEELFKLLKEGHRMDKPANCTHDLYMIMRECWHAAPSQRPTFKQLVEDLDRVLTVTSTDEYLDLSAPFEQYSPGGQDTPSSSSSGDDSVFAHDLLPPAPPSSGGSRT
Description: as §1, §2

ADCK3 = molecular target: T3, ADCK3 (Homo sapiens, UniProt Q8NI60)
T3 construct: purchased Ambit (DiscoverX) KINOMEscan; Cerep
Description: as §1, §2

FAK = molecular target: T4, FAK (Homo sapiens, UniProt Q05397)
T4 construct: purchased Ambit (DiscoverX) KINOMEscan; Cerep
T4 sequence (Q05397 whole entry): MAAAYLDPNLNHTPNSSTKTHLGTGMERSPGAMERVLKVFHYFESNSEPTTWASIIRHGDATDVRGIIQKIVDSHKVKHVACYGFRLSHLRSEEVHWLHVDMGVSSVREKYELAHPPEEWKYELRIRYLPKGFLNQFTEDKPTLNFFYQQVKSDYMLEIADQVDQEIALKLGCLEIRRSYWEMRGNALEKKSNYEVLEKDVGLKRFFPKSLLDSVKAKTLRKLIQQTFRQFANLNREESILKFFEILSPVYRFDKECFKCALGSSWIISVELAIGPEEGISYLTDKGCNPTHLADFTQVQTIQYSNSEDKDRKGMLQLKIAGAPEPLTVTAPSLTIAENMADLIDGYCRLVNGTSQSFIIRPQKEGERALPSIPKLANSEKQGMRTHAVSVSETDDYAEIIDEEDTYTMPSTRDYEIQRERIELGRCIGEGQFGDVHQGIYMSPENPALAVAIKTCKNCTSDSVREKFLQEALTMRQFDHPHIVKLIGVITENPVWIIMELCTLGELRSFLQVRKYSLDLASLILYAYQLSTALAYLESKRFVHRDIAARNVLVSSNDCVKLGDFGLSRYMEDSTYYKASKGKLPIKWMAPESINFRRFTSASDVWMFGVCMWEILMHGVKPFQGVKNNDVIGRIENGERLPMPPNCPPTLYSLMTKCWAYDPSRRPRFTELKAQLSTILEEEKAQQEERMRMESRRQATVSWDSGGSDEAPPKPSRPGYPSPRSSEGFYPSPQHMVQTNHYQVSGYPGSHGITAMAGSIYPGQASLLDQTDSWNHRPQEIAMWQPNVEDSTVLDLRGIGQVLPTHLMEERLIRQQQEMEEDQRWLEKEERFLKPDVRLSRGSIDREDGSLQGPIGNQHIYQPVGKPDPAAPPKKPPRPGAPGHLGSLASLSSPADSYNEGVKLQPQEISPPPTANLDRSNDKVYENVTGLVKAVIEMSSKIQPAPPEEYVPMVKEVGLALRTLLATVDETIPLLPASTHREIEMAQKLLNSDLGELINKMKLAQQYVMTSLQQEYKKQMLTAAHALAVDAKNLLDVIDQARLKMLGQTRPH
Description: as §1, §2

GAK = molecular target: T5, GAK (Homo sapiens, UniProt O14976)
T5 construct: purchased Ambit (DiscoverX) KINOMEscan; Cerep
Description: as §1, §2

PIK3C2g = molecular target: T6, PIK3C2g (Homo sapiens, UniProt O75747)
T6 construct: purchased Ambit (DiscoverX) KINOMEscan; Cerep
Description: as §1, §2

MLK2 = molecular target: T7, MLK2 (Homo sapiens, UniProt Q02779)
T7 construct: purchased Ambit (DiscoverX) KINOMEscan; Cerep
Description: as §1, §2

MEK2 = molecular target: T8, MEK2 (Homo sapiens, UniProt P36507)
T8 construct: purchased Ambit (DiscoverX) KINOMEscan; Cerep
Description: as §1, §2

ACVR2a = molecular target: T9, ACVR2a (Homo sapiens, UniProt P27037)
T9 construct: purchased Ambit (DiscoverX) KINOMEscan; Cerep
Description: as §1, §2

KIT(V559D, T670I) = molecular target: T10, KIT(V559D, T670I) (Homo sapiens, UniProt P10721, T670I/V559D)
T10 construct: purchased Ambit (DiscoverX) KINOMEscan; Cerep
Description: as §1, §2

FGFR2 = molecular target: T11, FGFR2 (Homo sapiens, UniProt P21802)
T11 construct: purchased Ambit (DiscoverX) KINOMEscan; Cerep
T11 sequence (P21802 22-821): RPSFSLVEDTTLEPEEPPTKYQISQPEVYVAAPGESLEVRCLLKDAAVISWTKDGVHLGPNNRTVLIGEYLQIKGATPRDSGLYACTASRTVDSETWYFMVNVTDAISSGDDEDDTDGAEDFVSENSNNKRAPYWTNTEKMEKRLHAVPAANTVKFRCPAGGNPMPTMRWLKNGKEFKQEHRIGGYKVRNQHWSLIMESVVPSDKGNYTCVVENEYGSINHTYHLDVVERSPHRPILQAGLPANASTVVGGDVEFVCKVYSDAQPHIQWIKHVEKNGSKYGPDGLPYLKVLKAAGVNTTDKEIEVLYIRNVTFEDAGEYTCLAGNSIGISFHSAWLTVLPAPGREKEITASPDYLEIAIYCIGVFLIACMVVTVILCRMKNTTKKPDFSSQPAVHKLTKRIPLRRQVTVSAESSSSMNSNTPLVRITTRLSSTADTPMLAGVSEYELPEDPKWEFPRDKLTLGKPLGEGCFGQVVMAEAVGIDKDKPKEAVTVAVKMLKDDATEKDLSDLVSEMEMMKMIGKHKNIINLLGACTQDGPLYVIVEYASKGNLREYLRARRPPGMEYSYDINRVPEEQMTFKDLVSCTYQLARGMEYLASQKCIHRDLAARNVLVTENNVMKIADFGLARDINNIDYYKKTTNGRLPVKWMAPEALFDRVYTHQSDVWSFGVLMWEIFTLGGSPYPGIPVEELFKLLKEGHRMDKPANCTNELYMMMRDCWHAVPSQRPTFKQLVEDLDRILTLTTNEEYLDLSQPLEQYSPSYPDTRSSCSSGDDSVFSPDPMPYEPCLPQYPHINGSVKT
Description: as §1, §2

ACVR2b = molecular target: T12, ACVR2b (Homo sapiens, UniProt Q13705)
T12 construct: purchased Ambit (DiscoverX) KINOMEscan; Cerep
Description: as §1, §2

RIPK4 = molecular target: T13, RIPK4 (Homo sapiens, UniProt P57078)
T13 construct: purchased Ambit (DiscoverX) KINOMEscan; Cerep
Description: as §1, §2

ACVR1b = molecular target: T14, ACVR1b (Homo sapiens, UniProt P36896)
T14 construct: purchased Ambit (DiscoverX) KINOMEscan; Cerep
Description: as §1, §2

FGFR3(G697C) = molecular target: T15, FGFR3(G697C) (Homo sapiens, UniProt P22607, G697C)
T15 construct: purchased Ambit (DiscoverX) KINOMEscan; Cerep
T15 sequence (P22607 23-806 G697C): as the sequence (P22607 23-806) above, with G675C counted along it
Description: as §1, §2

CDC2L2 = molecular target: T16, CDC2L2 (Homo sapiens, UniProt Q9UQ88)
T16 construct: purchased Ambit (DiscoverX) KINOMEscan; Cerep
Description: as §1, §2

MEK4 = molecular target: T17, MEK4 (Homo sapiens, UniProt P45985)
T17 construct: purchased Ambit (DiscoverX) KINOMEscan; Cerep
Description: as §1, §2

SYK = molecular target: T18, SYK (Homo sapiens, UniProt P43405)
T18 construct: purchased Ambit (DiscoverX) KINOMEscan; Cerep
Description: as §1, §2

FYN = molecular target: T19, FYN (Homo sapiens, UniProt P06241)
T19 construct: purchased Ambit (DiscoverX) KINOMEscan; Cerep
Description: as §1, §2

HIPK1 = molecular target: T20, HIPK1 (Homo sapiens, UniProt Q86Z02)
T20 construct: purchased Ambit (DiscoverX) KINOMEscan; Cerep
T20 sequence (Q86Z02 whole entry): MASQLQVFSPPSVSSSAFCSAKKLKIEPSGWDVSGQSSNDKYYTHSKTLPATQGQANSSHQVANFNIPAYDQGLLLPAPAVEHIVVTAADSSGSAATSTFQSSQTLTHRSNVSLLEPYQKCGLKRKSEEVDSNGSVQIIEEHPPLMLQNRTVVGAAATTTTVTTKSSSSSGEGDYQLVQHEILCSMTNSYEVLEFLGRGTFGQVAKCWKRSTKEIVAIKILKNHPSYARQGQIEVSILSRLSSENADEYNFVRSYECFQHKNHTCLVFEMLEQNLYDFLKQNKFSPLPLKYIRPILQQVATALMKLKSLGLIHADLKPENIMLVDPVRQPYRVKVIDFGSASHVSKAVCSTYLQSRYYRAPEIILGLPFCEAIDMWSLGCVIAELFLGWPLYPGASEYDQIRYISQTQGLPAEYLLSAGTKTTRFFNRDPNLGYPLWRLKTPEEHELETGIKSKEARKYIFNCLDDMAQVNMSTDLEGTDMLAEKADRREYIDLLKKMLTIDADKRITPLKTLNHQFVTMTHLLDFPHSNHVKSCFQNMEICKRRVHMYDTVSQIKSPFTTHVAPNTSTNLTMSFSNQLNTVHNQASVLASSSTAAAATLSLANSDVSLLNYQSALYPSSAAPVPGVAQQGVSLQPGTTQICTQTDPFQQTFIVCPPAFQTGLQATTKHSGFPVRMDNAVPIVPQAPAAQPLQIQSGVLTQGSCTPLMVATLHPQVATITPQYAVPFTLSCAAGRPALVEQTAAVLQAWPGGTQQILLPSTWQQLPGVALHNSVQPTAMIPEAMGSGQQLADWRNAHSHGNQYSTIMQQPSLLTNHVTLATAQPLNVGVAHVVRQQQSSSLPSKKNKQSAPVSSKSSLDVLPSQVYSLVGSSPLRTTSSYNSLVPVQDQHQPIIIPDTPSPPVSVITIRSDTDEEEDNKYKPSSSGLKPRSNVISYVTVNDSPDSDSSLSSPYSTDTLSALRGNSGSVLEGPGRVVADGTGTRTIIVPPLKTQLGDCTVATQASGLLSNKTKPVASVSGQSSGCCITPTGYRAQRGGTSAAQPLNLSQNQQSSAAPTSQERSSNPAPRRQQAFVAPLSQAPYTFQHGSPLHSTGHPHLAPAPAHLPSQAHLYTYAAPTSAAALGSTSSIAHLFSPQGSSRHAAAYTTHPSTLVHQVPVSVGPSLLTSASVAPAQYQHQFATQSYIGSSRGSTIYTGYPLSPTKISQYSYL
Description: as §1, §2

YANK2 = molecular target: T21, YANK2 (Homo sapiens, UniProt Q9NY57)
T21 construct: purchased Ambit (DiscoverX) KINOMEscan; Cerep
Description: as §1, §2

[1] = molecular target: T22, RPS6KA1(Kin.Dom.1-N-term) (Homo sapiens, UniProt Q15418)
T22 construct: RPS6KA1(Kin.Dom.1-N-term); purchased Ambit (DiscoverX) KINOMEscan; Cerep
T22 sequence (Q15418 62-321 limits assumed): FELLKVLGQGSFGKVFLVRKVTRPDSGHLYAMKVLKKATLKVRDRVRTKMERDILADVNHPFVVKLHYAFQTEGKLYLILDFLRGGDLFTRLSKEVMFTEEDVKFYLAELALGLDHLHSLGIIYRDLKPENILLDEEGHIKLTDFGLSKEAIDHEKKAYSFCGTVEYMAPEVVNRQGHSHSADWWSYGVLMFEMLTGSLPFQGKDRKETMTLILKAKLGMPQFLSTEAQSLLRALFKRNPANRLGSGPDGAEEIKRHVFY
Description: as §1, §2

MRCKA = molecular target: T23, MRCKA (Homo sapiens, UniProt Q5VT25)
T23 construct: purchased Ambit (DiscoverX) KINOMEscan; Cerep
Description: as §1, §2

MET(M1250T) = molecular target: T24, MET(M1250T) (Homo sapiens, UniProt P08581, M1250T)
T24 construct: purchased Ambit (DiscoverX) KINOMEscan; Cerep
Description: as §1, §2

TNK2 = molecular target: T25, TNK2 (Homo sapiens, UniProt Q07912)
T25 construct: purchased Ambit (DiscoverX) KINOMEscan; Cerep
Description: as §1, §2

NEK6 = molecular target: T26, NEK6 (Homo sapiens, UniProt Q9HC98)
T26 construct: purchased Ambit (DiscoverX) KINOMEscan; Cerep
Description: as §1, §2

KIT(V559D) = molecular target: T27, KIT(V559D) (Homo sapiens, UniProt P10721, V559D)
T27 construct: purchased Ambit (DiscoverX) KINOMEscan; Cerep
Description: as §1, §2

MUSK = molecular target: T28, MUSK (Homo sapiens, UniProt O15146)
T28 construct: purchased Ambit (DiscoverX) KINOMEscan; Cerep
T28 sequence (O15146 24-869): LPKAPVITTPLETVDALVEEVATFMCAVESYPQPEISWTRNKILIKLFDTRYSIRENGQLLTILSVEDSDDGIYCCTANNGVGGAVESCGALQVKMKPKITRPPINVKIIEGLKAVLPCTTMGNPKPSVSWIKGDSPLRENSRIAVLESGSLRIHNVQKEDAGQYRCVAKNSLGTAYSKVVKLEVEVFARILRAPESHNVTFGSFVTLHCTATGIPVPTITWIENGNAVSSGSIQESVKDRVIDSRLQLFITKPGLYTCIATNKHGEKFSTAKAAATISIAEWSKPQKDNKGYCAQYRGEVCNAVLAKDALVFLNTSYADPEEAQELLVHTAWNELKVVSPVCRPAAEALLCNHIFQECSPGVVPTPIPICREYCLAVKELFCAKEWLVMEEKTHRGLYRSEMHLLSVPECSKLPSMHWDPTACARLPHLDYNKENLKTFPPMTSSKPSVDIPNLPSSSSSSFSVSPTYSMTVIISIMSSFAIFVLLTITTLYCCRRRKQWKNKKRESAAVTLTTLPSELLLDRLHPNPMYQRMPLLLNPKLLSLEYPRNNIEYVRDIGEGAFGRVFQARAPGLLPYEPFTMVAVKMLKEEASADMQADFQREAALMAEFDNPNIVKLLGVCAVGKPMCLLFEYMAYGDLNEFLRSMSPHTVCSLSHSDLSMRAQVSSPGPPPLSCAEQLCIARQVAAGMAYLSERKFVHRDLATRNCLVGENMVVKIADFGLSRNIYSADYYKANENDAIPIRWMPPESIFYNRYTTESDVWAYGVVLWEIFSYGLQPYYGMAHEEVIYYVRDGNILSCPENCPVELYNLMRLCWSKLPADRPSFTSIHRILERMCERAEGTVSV
Description: as §1, §2

ASK1 = molecular target: T29, ASK1 (Homo sapiens, UniProt Q99683)
T29 construct: purchased Ambit (DiscoverX) KINOMEscan; Cerep
Description: as §1, §2

NDR1 = molecular target: T30, NDR1 (Homo sapiens, UniProt Q15208)
T30 construct: purchased Ambit (DiscoverX) KINOMEscan; Cerep
Description: as §1, §2

CDKL5 = molecular target: T31, CDKL5 (Homo sapiens, UniProt O76039)
T31 construct: purchased Ambit (DiscoverX) KINOMEscan; Cerep
Description: as §1, §2

CDK5 = molecular target: T32, CDK5 (Homo sapiens, UniProt Q00535)
T32 construct: purchased Ambit (DiscoverX) KINOMEscan; Cerep
Description: as §1, §2

MEK6 = molecular target: T33, MEK6 (Homo sapiens, UniProt P52564)
T33 construct: purchased Ambit (DiscoverX) KINOMEscan; Cerep
Description: as §1, §2

CCCCN1CCN(C(=N)c2cccc(NC(=O)Nc3ccc(S(=O)(=O)NCc4ccc(S(N)(=O)=O)cc4)cc3)c2)CC1 [SC81458, 4-(3-(3-((4-butylpiperazin-1-yl)(imino)methyl)phenyl)ureido)-N-(4-sulfamoylbenzyl) benzenesulfonamide]
remaining binding at 10 µM (PAK1): 100% | remaining binding at 10 µM (FGFR3): 100% | remaining binding at 10 µM (ADCK3): 100% | remaining binding at 10 µM (FAK): 100% | remaining binding at 10 µM (GAK): 92% | remaining binding at 10 µM (PIK3C2g): 100% | remaining binding at 10 µM (MLK2): 100% | remaining binding at 10 µM (MEK2): 100% | remaining binding at 10 µM (ACVR2a): 100% | remaining binding at 10 µM (KIT(V559D, T670I)): 85% | remaining binding at 10 µM (FGFR2): 100% | remaining binding at 10 µM (ACVR2b): 93% | remaining binding at 10 µM (RIPK4): 74% | remaining binding at 10 µM (ACVR1b): 100% | remaining binding at 10 µM (FGFR3(G697C)): 100% | remaining binding at 10 µM (CDC2L2): 100% | remaining binding at 10 µM (MEK4): 100% | remaining binding at 10 µM (SYK): 100% | remaining binding at 10 µM (FYN): 100% | remaining binding at 10 µM (HIPK1): 100% | remaining binding at 10 µM (YANK2): 99% | remaining binding at 10 µM [1]: 100% | remaining binding at 10 µM (MRCKA): 100% | remaining binding at 10 µM (MET(M1250T)): 100% | remaining binding at 10 µM (TNK2): 94% | remaining binding at 10 µM (NEK6): 100% | remaining binding at 10 µM (KIT(V559D)): 100% | remaining binding at 10 µM (MUSK): 95% | remaining binding at 10 µM (ASK1): 100% | remaining binding at 10 µM (NDR1): 100% | remaining binding at 10 µM (CDKL5): 100% | remaining binding at 10 µM (CDK5): 100% | remaining binding at 10 µM (MEK6): 81%
